Experimental data: patent US8143212B2 (Vicuron Pharmaceuticals Inc., priority 2002, dated 2012)
Several values for one entry are separate records, joined by “and”; a condition that tells them apart may be missing. Equal entries are not always repeated.

Legend:
[1] = tested on: S. aureus; assay: Murine thigh-infection model (time kill, dosing regimen, PK/PD; Tables 31, 32);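 further: mouse thigh infection, bacterial counts per thigh after therapy, dose-response curves fitted with a maximum effect model to give static and 1 or 2 log kill exposures, mean of 4 thighs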
Experimental: The murine thigh-infection model was used for all organisms throughout the various studies. In this well-established model, approximately 10^6 Cfu of the study organisms are injected into one or both thighs (in 0.1 ml) two hours before starting therapy. The number of organisms in the thigh at the start of therapy in the following studies varied from 10^7.15-7.59 cfu/thigh.
Each point represents the mean of 4 thighs. Five dose levels, ranging 16-fold were used. The dose levels used in the study against S. aureus ranged from 5 to 80 mg/kg.
In these studies, multiple dosing regimens varying the dose and dosage interval were administered intraperitoneally in 0.2 ml volumes to groups of mice for 144 h (6 days). The dosing intervals chosen were 12, 24, 36, and 72 hours. Five different doses (two-fold increases) were used. Study against S. aureus utilized total dose (mg/kg/6d) levels ranging from 30 to 480 mg/kg/6d. […] Each point represents the mean of 4 thighs.
Each of the dose-response curves was also mathematically characterized using a maximum effect model. […] From these parameters we could then calculate the dose required to produce a net bacteriostatic effect over the 144 hour treatment period as well as the doses necessary to produce a 1 and 2 log-reduction in organism burden.
We determined which PK/PD parameter correlated best with efficacy by relating the number of bacteria in thigh at the end of 144 hours of therapy with [1] the peak/MIC ratio, [2] the AUC/MIC ratio, and [3] the percentage of the dosing interval that serum levels exceed the MIC for each of the dosage regimens studied. The PK/PD parameter values for those doses not specifically studied were extrapolated from the values of the nearest studied doses. […] Each point represents the mean of four thighs. […] The data illustrated in these figures were also analyzed by the same maximum dose-response model mentioned above, except that the different PK/PD parameters were used in place of the dose. The R^2 represents the coefficient of determination observed for the relationship between efficacy and each PK/PD parameter.

[2] = tested on: P vulgaris; assay: MIC, microbiological activity (Table 3); format: cell-based; conditions: L 79 P vulgaris; read-out: MIC
[3] = tested on: skin and soft tissue infections (SSTI); assay: Phase II SSTI trial: clinical response; format: in vivo, human
Experimental: This randomized, controlled study evaluated the safety and efficacy of two dose regimens of dalbavancin.
There were 62 patients randomized into the study; all received at least one dose of study medication. Four study populations were evaluated for safety and efficacy and were defined as follows: The intent-to-treat (ITT) population included all patients who received at least one dose of study drug (all randomized study subjects).
The effectiveness of the three treatment regimens was determined by assessing the patients' clinical response and the documented or presumed microbiological responses. The primary efficacy endpoint was clinical response at the follow-up visit for the clinically evaluable population. Clinical response, for both EOT and FU visits, was categorized as success (cure or improvement) or failure (including indeterminate results). Patients classified as successes must not have received additional systemic antibacterial treatment for their infection. Failure was defined as persistence of one or more local or systemic signs and symptoms of SSTI such that treatment with new or additional systemic antibacterial agents was required for the SSTI.

## CN[C@H]1C(=O)N[C@@H]2Cc3ccc(cc3)Oc3cc4cc(c3O[C@@H]3O[C@H](C(=O)O)[C@@H](O)[C@H](O)[C@H]3NC(=O)CCCCCCCCC(C)C)Oc3ccc(cc3Cl)[C@@H](O)[C@@H]3NC(=O)[C@H](NC(=O)[C@@H]4NC(=O)[C@@H](NC2=O)c2cc(cc(O)c2Cl)Oc2cc1ccc2O)c1ccc(O)c(c1)-c1c(O[C@H]2O[C@H](CO)[C@@H](O)[C@H](O)[C@@H]2O)cc(O)cc1[C@@H](C(=O)NCCCN(C)C)NC3=O [Dalbavancin]
[1]; SA31005, q 72 h regimen
  Static Effect mg/kg/72 h: 67.7 mg/kg/72 h
[1]; SA33591, q 24 h regimen
  1 Log Kill f24AUC/MBC: 58.3
  1 Log Kill f24AUC/MIC: 121
  1 Log Kill mg/kg/24 h: 27.7 mg/kg/24 h
  2 Log Kill f24AUC/MBC: 74.3
  2 Log Kill f24AUC/MIC: 157
  2 Log Kill mg/kg/24 h: 33.5 mg/kg/24 h
  Static Effect f24AUC/MBC: 46
  Static Effect f24AUC/MIC: 96.2
  Static Effect mg/kg/24 h: 22.3 mg/kg/24 h
[1]; SA33591, q 72 h regimen
  1 Log Kill f24AUC/MBC: 76.6
  1 Log Kill f24AUC/MIC: 160
  1 Log Kill mg/kg/24 h: 93 mg/kg/24 h
  2 Log Kill f24AUC/MBC: 94
  2 Log Kill f24AUC/MIC: 195
  2 Log Kill mg/kg/24 h: 114 mg/kg/24 h
  Static Effect f24AUC/MBC: 59
  Static Effect f24AUC/MIC: 123
  Static Effect mg/kg/72 h: 74 mg/kg/72 h
[1]; SA307109, q 72 h regimen
  1 Log Kill f24AUC/MBC: 12.9
  1 Log Kill f24AUC/MIC: 108
  1 Log Kill mg/kg/24 h: 34 mg/kg/24 h
  2 Log Kill f24AUC/MBC: 14.6
  2 Log Kill f24AUC/MIC: 121
  2 Log Kill mg/kg/24 h: 37 mg/kg/24 h
  Static Effect f24AUC/MBC: 11.3
  Static Effect f24AUC/MIC: 94
  Static Effect mg/kg/72 h: 31 mg/kg/72 h
[1]; SA Smith, q 24 h regimen
  1 Log Kill f24AUC/MBC: 119
  1 Log Kill f24AUC/MIC: 248
  1 Log Kill mg/kg/24 h: 50.7 mg/kg/24 h
  2 Log Kill f24AUC/MBC: 173
  2 Log Kill f24AUC/MIC: 361
  2 Log Kill mg/kg/24 h: 73.5 mg/kg/24 h
  Static Effect f24AUC/MBC: 75
  Static Effect f24AUC/MIC: 156
  Static Effect mg/kg/24 h: 33.5 mg/kg/24 h
[1]; SA Smith, q 72 h regimen
  1 Log Kill f24AUC/MBC: 78.0
  1 Log Kill f24AUC/MIC: 163
  1 Log Kill mg/kg/24 h: 95 mg/kg/24 h
  2 Log Kill f24AUC/MBC: 22
  2 Log Kill f24AUC/MIC: 254
  2 Log Kill mg/kg/24 h: 148 mg/kg/24 h
  Static Effect f24AUC/MBC: 46.1
  Static Effect f24AUC/MIC: 96
  Static Effect mg/kg/72 h: 59 mg/kg/72 h
[1]; all strains, 6 day study
  drop in cfu: > 4 log10
[1]; every 24 h dosing
  free drug 24 h AUC/MIC associated with a static effect: 265±143
[1]; every 72 h dosing
  free drug 24 h AUC/MIC associated with a static effect: 160±67
[1]; over the 6 days
  free drug AUC/MIC required for efficacy: ~1000
[1]; single doses, highest doses studied
  extent of killing: > 2 log
[2]
  MIC: > 32 µg/mL
[3]; Clinically evaluable at EOT, Single-dose (1100 mg)
  Clinical Success Rate: 13/16 (61.5) %
[3]; Clinically evaluable at EOT, Two-dose (1000/500 mg)
  Clinical Success Rate: 16/17 (94.1) %
[3]; Clinically evaluable at FU, Single-dose (1100 mg)
  Clinical Success Rate: 8/13 (61.5) %
[3]; Clinically evaluable at FU, Two-dose (1000/500 mg)
  Clinical Success Rate: 16/17 (94.1) %
[3]; ITT at EOT, Single-dose (1100 mg)
  Clinical Success Rate: 15/20 (75.0) %
[3]; ITT at EOT, Two-dose (1000/500 mg)
  Clinical Success Rate: 19/21 (90.5) %
[3]; ITT at FU, Single-dose (1100 mg)
  Clinical Success Rate: 12/20 (60.0) %
[3]; ITT at FU, Two-dose (1000/500 mg)
  Clinical Success Rate: 19/21 (90.5) %
[3]; MITT at EOT, Single-dose (1100 mg)
  Clinical Success Rate: 10/14 (71.4) %
[3]; MITT at EOT, Two-dose (1000/500 mg)
  Clinical Success Rate: 12/13 (92.3) %
[3]; MITT at FU, Single-dose (1100 mg)
  Clinical Success Rate: 7/14 (50.0) %
[3]; MITT at FU, Two-dose (1000/500 mg)
  Clinical Success Rate: 12/13 (92.3) %
[3]; MITT population with MRSA, FU assessment, single-dose
  Clinical Success Rate: 50%
[3]; MITT population with MRSA, FU assessment, two-dose
  Clinical Success Rate: 80%
[3]; Microbiologically evaluable at EOT, Single-dose (1100 mg)
  Clinical Success Rate: 10/13 (76.9) %
[3]; Microbiologically evaluable at EOT, Two-dose (1000/500 mg)
  Clinical Success Rate: 10/11 (90.9) %
[3]; Microbiologically evaluable at FU, Single-dose (1100 mg)
  Clinical Success Rate: 6/11 (54.5) %
[3]; Microbiologically evaluable at FU, Two-dose (1000/500 mg)
  Clinical Success Rate: 10/11 (90.9) %
[3]; clinically-evaluable population, FU assessment, single-dose: 1100 mg IV day 1
  Clinical Success Rate: 61.5%
[3]; clinically-evaluable population, FU assessment, two-dose: 1 g IV day 1 + 500 mg IV day 8
  Clinical Success Rate: 94.1% and 94%
